From patent US20050020576A1, “Kappa agonist compounds and pharmaceutical formulations thereof” (priority 1996, published 2005) come the findings set out here.

For series [1], the target named is T1, cloned human kappa receptor (Homo sapiens, UniProt P41145). In words: [3H]U69593 (agonist) binding to the cloned human kappa receptor.
For series [2], the target named is T1, cloned human kappa receptor. Put plainly: biochemical. The class given is binding.
The subject of series [3] is formalin-induced flinching. In words: animal or person. Format: in vivo, male Sprague-Dawley rats. As to conditions: rat, in vivo.
Where [4] appears, read: read-out: Ki(nM) [3H]-Diprenorphin κ.

Values joined by “and” are separate entries in the source; they are usually repeats but may differ in a detail not shown here. Equal values may be shown once. Where a name gives a salt, the structure may show the parent alone.

T1 sequence (P41145 whole entry): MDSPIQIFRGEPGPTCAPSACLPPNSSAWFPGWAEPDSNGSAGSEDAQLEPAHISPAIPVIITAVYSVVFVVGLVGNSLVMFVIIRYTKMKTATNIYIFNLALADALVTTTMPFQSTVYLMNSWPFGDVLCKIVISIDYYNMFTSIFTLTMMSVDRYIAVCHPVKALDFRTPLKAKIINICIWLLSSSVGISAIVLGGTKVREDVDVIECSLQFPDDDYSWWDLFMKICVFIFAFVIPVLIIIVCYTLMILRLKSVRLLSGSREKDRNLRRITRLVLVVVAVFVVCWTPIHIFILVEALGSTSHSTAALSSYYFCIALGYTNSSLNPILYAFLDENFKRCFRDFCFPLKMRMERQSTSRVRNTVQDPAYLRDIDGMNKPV

As a reminder, the Ki is the equilibrium dissociation constant of an inhibitor or competing ligand from its target. As for `CS(=O)(=O)c1ccc(CC(=O)N2CCN(S(C)(=O)=O)CC2CN2CCCC2)cc1` (racemic) [(R,S-8b), (R,S)-4-Methanesulfonyl-1-[(4-methylsulfonylphenyl)acetyl]-2-[(1-pyrrolidinyl)-methyl]piperazine hydrochloride], the inhibitory constant (Ki) in series [1] (Ki, nM 3H-U-69,593) is 20 nM and 31 nM. Further, in series [2] (read-out: 3H-Diprenorphin, % @ 1 uM), the inhibition at 1 µM worked out at 41%.
Take `CS(=O)(=O)N1CCN(C(=O)Cc2ccccc2[N+](=O)[O-])[C@H](CN2CCCC2)C1.Cl` (racemic) [(R,S-8c), (R,S)-4-Methanesulfonyl-1-[(2-nitrophenyl)acetyl]-2-[(1-pyrrolidinyl)-methyl]piperazine hydrochloride]: in series [1], the “3H-U-69,593, % @ 1 uM” value is reported as 51% @ 1 uM. In addition, the “3H-Diprenorphin, % @ 1 uM” value in series [2] was determined as 15% @ 1 uM.
Usually melting point stands for the temperature, or range, at which the solid turns liquid. In turn, `CN(C(=O)Cc1ccc(C(F)(F)F)cc1)[C@H](CN1CCCC1)c1cccc(NS(C)(=O)=O)c1.Cl` [Example 3d, 2-(4-Trifluoromethylphenyl)-N-methyl-N-{[1S]-1-[3-[(methylsulfonyl)amino]phenyl]-2-[1-pyrrolidinyl]ethyl}acetamide hydrochloride] had a melting point of 173 to 175 °C. This compound also yielded a Ki in series [2] (Ki (nM) [3H]-Diprenorphin κ) of 0.28 nM. The “Late Phase Formalin A50” value in series [3] was 16.0 mg/kg.
As for `CN(C(=O)Cc1ccc(S(C)(=O)=O)cc1)[C@H](CN1CCCC1)c1cccc(NS(C)(=O)=O)c1.CS(=O)(=O)O` [Example 3e, 2-(4-Methanesulfonylphenyl)-N-methyl-N-{[1S]-1-[3-[(methylsulfonyl)amino]phenyl]-2-[1-pyrrolidinyl]ethyl}acetamide methanesulfonate], the melting point lay in the range of 140 to 142 °C. The compound further registered an inhibition constant (Ki) in series [2] (Ki (nM) [3H]-Diprenorphin κ) of 3.2 nM. Besides, the “Late Phase Formalin, % @ 300” value in series [3] came out at 71% @ 300.
The compound `CN(C(=O)Cc1ccc(Cl)c(Cl)c1)[C@H](CN1CCCC1)c1cccc(NS(C)(=O)=O)c1.Cl` [Example 3f, 2-(3,4-Dichlorophenyl)-N-methyl-N-{[1S]-1-[3-[(methylsulfonyl)amino]phenyl]-2-[1-pyrrolidinyl]ethyl}acetamide hydrochloride] showed a melting point of 240 to 242 °C. The same compound registered an inhibitory constant (Ki) in series [2] (Ki (nM) [3H]-Diprenorphin κ) of 0.18 nM. Also, the “Late Phase Formalin A50” value in series [3] was 8.9 mg/kg.
For `CN(C(=O)Cc1ccc(Cl)c(Cl)c1)[C@H](CN1CCCC1)c1cccc(NC(=O)/C=C\C(=O)O)c1` [Example 3h], the melting point was in the range of 174 to 176 °C. Moreover, the inhibitory constant (Ki) in series [2] (Ki (nM) [3H]-Diprenorphin κ) worked out at 1.8 nM. Besides, the “Late Phase Formalin, % @ 10” value in series [3] is recorded as 59% @ 10.
For the compound `CN(C(=O)Cc1ccccc1C(=O)O)[C@H](CN1CCCC1)c1ccccc1.Cl` [Example 3kk, 2-(2-Carboxyphenyl)-N-methyl-N-{[1S]-1-phenyl-2-(1-pyrrolidinyl)ethyl}acetamide hydrochloride], the melting point is 230 to 232 °C (dec.). In series [2], the “[3H]-Diprenorphin κ, % @ 1 μM” value was found to be 53% @ 1 μM. Also, the “Late Phase Formalin, % @ 300” value in series [3] worked out at 23% @ 300.
Consider `CN(C(=O)Cc1ccc(Cl)c(S(N)(=O)=O)c1)[C@H](CN1CCCC1)c1ccccc1.CS(=O)(=O)O` [Example 3m, 2-(3-Sulfamoyl-4-chlorophenyl)-N-methyl-N-{[1S]-1-phenyl-2-[1-pyrrolidinyl]ethyl}acetamide methanesulfonate], for which the melting point is 220 to 222 °C. In series [2] (Ki (nM) [3H]-Diprenorphin κ), this compound displayed a Ki of 5.1 nM. Besides, the “Late Phase Formalin, % @ 300” value in series [3] worked out at 65% @ 300.
The corresponding values for `CNS(=O)(=O)c1cc(CC(=O)N(C)[C@H](CN2CCCC2)c2ccccc2)ccc1F.Cl` [Example 3o, 2-[3-(N-Methylsulfamoyl)-4-fluorophenyl]-N-methyl-N-{[1S]-1-phenyl-2-[1-pyrrolidinyl]ethyl}acetamide hydrochloride] are 278 to 280 °C, 30.5 nM and 59% @ 300.
In the same order, the values of `CN(C(=O)Cc1ccc(C(F)(F)F)cc1NC(=O)/C=C\C(=O)O)[C@H](CN1CCCC1)c1ccccc1` [Example 3z] are 153 to 155 °C (dec.), 1.7 nM and 98% @ 300.
`CN(C(=O)Cc1ccc(C(F)(F)F)cc1NS(C)(=O)=O)[C@H](CN1CC[C@H](O)C1)c1ccccc1` [Example 126, 2-(2-N-Methylsulfonamido-2-amino-4-trifluoromethylphenyl)-N-methyl-N-[(1S)-1-phenyl-2-[1-(3S)-(3-hydroxypyrrolidinyl)ethyl]]acetamide]: in series [2] (Ki (nM) [3H]-Diprenorphin κ), the affinity corresponds to a Ki of 0.61 nM. Further, the “Late Phase Formalin (i. paw), % @ 300” value in series [3] is listed as 93% @ 300.
In the same order, the values of `COc1ccc(CC(=O)N(C)[C@H](CN2CC[C@H](O)C2)c2ccccc2)cc1NS(C)(=O)=O` [Example 127, 2-(3-N-Methylsulfonamido-3-amino-4-methoxyphenyl)-N-methyl-N-[(1S)-1-phenyl-2-[1-(3S)-(3-hydroxypyrrolidinyl)ethyl]]acetamide] are 0.82 nM and 94% @ 300.
The compound `CN(C(=O)Cc1ccc(O)c(N(S(C)(=O)=O)S(C)(=O)=O)c1)[C@H](CN1CCCC1)c1ccccc1` [Example 130, 2-(3-N-Bis-methylsulfonamido-3-amino-4-hydroxyphenyl)-N-methyl-N-[(1S)-1-phenyl-2-(1-pyrrolidinyl)ethyl]acetamide] returned an inhibition constant (Ki) in series [2] (Ki (nM) [3H]-Diprenorphin κ) of 1.3 nM. Further, the “Late Phase Formalin (i. paw), % @ 300” value in series [3] is given as 46% @ 300.
Take `CN(C(=O)Cc1cc2c(cc1S(=O)(=O)N(C)C)OCO2)[C@H](CN1CCCC1)c1ccccc1` [Example 132, 2-[2-(N-Dimethylsulfamoyl)-4,5-methylenedioxyphenyl]-N-methyl-N-[(1S)-1-phenyl-2-[(1-pyrrolidinyl)ethyl]]acetamide]: in series [2] (Ki (nM) [3H]-Diprenorphin κ), the inhibition constant (Ki) came to 0.25 nM. For the same compound, the “Late Phase Formalin (i. paw), % @ 300” value in series [3] is on record as 100% @ 300.
With `CN(C(=O)Cc1cc2c(cc1S(=O)(=O)N(C)C)OCO2)[C@H](CN1CC[C@H](O)C1)c1ccccc1` [Example 133, 2-[2-(N-Dimethylsulfamoyl)-4,5-methylenedioxyphenyl]-N-methyl-N-[(1S)-1-phenyl-2-[1-(3S)-(3-hydroxypyrrolidinyl)ethyl]]acetamide], the inhibition constant (Ki) in series [2] (setting [4]) was found to be 0.64 nM. Further, the “Late Phase Formalin (i. paw), % @ 300” value in series [3] was 98% @ 300.
Compound `COc1cc(CC(=O)N(C)[C@H](CN2CCCC2)c2ccccc2)c(S(=O)(=O)N2CCCC2)cc1OC` [Example 134, 2-[2-(N-Pyrrolidinesulfamoyl)-4,5-dimethoxyphenyl]-N-methyl-N-[(1S)-1-phenyl-2-[(1-pyrrolidinyl)ethyl]]acetamide] returned an inhibitory constant (Ki) in series [2] (Ki (nM) [3H]-Diprenorphin κ) of 0.26 nM. In addition, the “Late Phase Formalin (i. paw), % @ 300” value in series [3] worked out at 99% @ 300.
In the same order, the values of `COc1cc(CC(=O)N(C)[C@H](CN2CCCC2)c2ccccc2)c(S(=O)(=O)N(C)C)cc1OC` [Example 136, 2-[2-(N-Dimethylsulfamoyl)-4,5-dimethoxyphenyl]-N-methyl-N-[(1S)-1-phenyl-2-[(1-pyrrolidinyl)ethyl]]acetamide] are 0.44 nM and 97% @ 300.
In the case of `COc1cc(CC(=O)N(C)[C@H](CN2CCCC2)c2ccccc2)c(S(=O)(=O)N2CCN(C)CC2)cc1OC` [Example 138], the Ki in series [2] (setting [4]) turned out to be 1.3 nM. In addition, the “Late Phase Formalin (i. paw), % @ 300” value in series [3] came to 80% @ 300.
In series [2] (Ki (nM) [3H]-Diprenorphin κ), `COc1cc(CC(=O)N(C)[C@H](CN2CC[C@H](O)C2)c2ccccc2)c(S(=O)(=O)N2CCOCC2)cc1OC` [Example 141, 2-[2-N-(Morpholinesulfamoyl)-4,5-dimethoxyphenyl]-N-methyl-N-[(1S)-1-phenyl-2-[1-(3S)-(3-hydroxypyrrolidinyl)ethyl]]acetamide] gave a Ki of 1.3 nM. Further, the “Late Phase Formalin (i. paw), % @ 300” value in series [3] was found to be 98% @ 300.
As for `COc1cc(CC(=O)N(C)[C@H](CN2CCCC2)c2ccccc2)c(S(=O)(=O)N2CCCC2)c(OC)c1OC` [Example 143, 2-[2-(N-Pyrrolidinesulfamoyl)-3,4,5-trimethoxyphenyl]-N-methyl-N-[(1S)-1-phenyl-2-[(1-pyrrolidinyl)ethyl]]acetamide], the inhibition constant Ki in series [2] (setting [4]) worked out at 2.1 nM. Moreover, in series [3], the “Late Phase Formalin (i. paw), % @ 300” value worked out at 98% @ 300.
In the same order, the values of `CNS(=O)(=O)c1cc(OC)ccc1CC(=O)N(C)[C@H](CN1CCCC1)c1ccccc1` [Example 145, 2-[2-(N-Methylsulfamoyl)-4-methoxyphenyl]-N-methyl-N-[(1S)-1-phenyl-2-[(1-pyrrolidinyl)ethyl]]acetamide] are 20.5 nM and 83% @ 300.
`CNS(=O)(=O)c1ccc(CC(=O)N(C)[C@H](CN2CC[C@H](O)C2)c2ccccc2)cc1` [Example 146, 2-[4-N-(Methylsulfamoyl)-phenyl]-N-methyl-N-[(1S)-1-phenyl-2-[1-(3S)-(3-hydroxypyrrolidinyl)ethyl]]acetamide] gave an inhibition constant (Ki) in series [2] (Ki (nM) [3H]-Diprenorphin κ) of 1 nM. Besides, the “Late Phase Formalin (i. paw), % @ 300” value in series [3] was determined as 52% @ 300.
On to `CN(C(=O)Cc1ccc(Cl)c(Cl)c1)[C@H]1c2cc(NC(=O)/C=C\C(=O)O)ccc2CC[C@@H]1N1CCCC1` [II-24], for which the inhibitory constant (Ki) in series [2] (Ki (nM) [3H] Diprenorphin κ) was found to be 28 nM. In addition, the “Late Phase Formalin, % @ 300 μg” value in series [3] stood at 69% @ 300 μg.
As for “(S)-2-(2-N-Methylsulfonamido-2-aminophenyl)-N-methyl-N-1-(4-hydroxyphenyl)-2-(1-pyrrolidinyl)ethyl]acetamide [Example 129B]”, the Ki in series [2] (setting [4]) came out at 75 nM. In series [3], the “Late Phase Formalin (i. paw), % @ 300” value is over 46% @ 300.
In the case of “N-[1R,2R-trans-4-Trifluoromethyl-N-methyl-N-[2-(1-pyrrolidinyl)cyclohexyl]-phenylacetamido]glycine Hydrochloride [Example 4k]”, the “[3H]-Diprenorphin, % @ 1 μM” value in series [2] was found to be 28% @ 1 μM. Moreover, the “Formalin (% A @ 300 μg i-paw)” value in series [3] was determined as 80% @ 300.
With “N-[1S. 2S-trans-4-Trifluoromethyl-N-methyl-N-[2-(1-pyrrolidinyl)cyclohexyl]-phenylacetamido]glycine Hydrochloride [Example 4j]”, in series [2] (read-out: Ki(nM) [3H]-Diprenorphin), the inhibition constant (Ki) amounted to 10.3 nM. Moreover, the “Formalin (% A @ 300 μg i-paw)” value in series [3] amounted to 91% @ 300.
